The IC50 is the concentration at which inhibition is half-maximal.

The values that follow come from patent publication US12065442B2, “Tropomyosin receptor kinase (TRK) degradation compounds and methods of use” (Cullgen (Shanghai), Inc., priority 2018, dated 2024).

This assay relates to KM12 cells. In words: Cell viability assay (CellTiter-Glo) in KM12 cells. Format: cell-based. The note with it: Homo sapiens, 72 h; Table 3; KM12 cell viability, CellTiter-Glo, 3 days; read-out: IC50. Background: Cellular ATP, detected with luciferase, serves as a proxy for viable cell number.
Take `O=C(CN1CCN(c2cccc(-c3cnc4ccc(N5CCC[C@@H]5c5cccc(F)c5)nn34)n2)CC1)NCCOCCOCCOCCOCCNc1ccc2c(c1)C(=O)N(C1CCC(=O)NC1=O)C2=O` (stereo partly drawn) [TR-125, N-(14-((2-(2,6-dioxopiperidin-3-yl)-1,3-dioxoisoindolin-5-yl)amino)-3,6,9,12-tetraoxatetradecyl)-2-(4-(6-(6-((R)-2-(3-fluorophenyl)pyrrolidin-1-yl)imidazo[1,2-b]pyridazin-3-yl)pyridin-2-yl)piperazin-1-yl)acetamide]: the IC50 worked out at 2.8 nM.
The figure for `O=C(CN1CCN(c2cccc(-c3cnc4ccc(N5CCC[C@@H]5c5cccc(F)c5)nn34)n2)CC1)NCCCCCCCNc1ccc2c(c1)C(=O)N(C1CCC(=O)NC1=O)C2=O` (stereo partly drawn) [TR-126, N-(7-((2-(2,6-dioxopiperidin-3-yl)-1,3-dioxoisoindolin-5-yl)amino)heptyl)-2-(4-(6-(6-((R)-2-(3-fluorophenyl)pyrrolidin-1-yl)imidazo[1,2-b]pyridazin-3-yl)pyridin-2-yl)piperazin-1-yl)acetamide] is 12.5 nM; for `O=C(CN1CCN(c2cccc(-c3cnc4ccc(N5CCC[C@@H]5c5cccc(F)c5)nn34)n2)CC1)NCCCNc1ccc2c(c1)C(=O)N(C1CCC(=O)NC1=O)C2=O` (stereo partly drawn) [TR-127, N-(3-((2-(2,6-dioxopiperidin-3-yl)-1,3-dioxoisoindolin-5-yl)amino)propyl)-2-(4-(6-(6-((R)-2-(3-fluorophenyl)pyrrolidin-1-yl)imidazo[1,2-b]pyridazin-3-yl)pyridin-2-yl)piperazin-1-yl)acetamide] it is 2.7 nM.
As for `O=C(CN1CCN(c2cccc(-c3cnc4ccc(N5CCC[C@@H]5c5cccc(F)c5)nn34)n2)CC1)NCCCCCCNc1ccc2c(c1)C(=O)N(C1CCC(=O)NC1=O)C2=O` (stereo partly drawn) [TR-128, N-(6-((2-(2,6-dioxopiperidin-3-yl)-1,3-dioxoisoindolin-5-yl)amino)hexyl)-2-(4-(6-(6-((R)-2-(3-fluorophenyl)pyrrolidin-1-yl)imidazo[1,2-b]pyridazin-3-yl)pyridin-2-yl)piperazin-1-yl)acetamide], the figure is 3.3 nM; as for `O=C(CN1CCN(c2cccc(-c3cnc4ccc(N5CCC[C@@H]5c5cccc(F)c5)nn34)n2)CC1)NCCOCCOCCOCCNc1ccc2c(c1)C(=O)N(C1CCC(=O)NC1=O)C2=O` (stereo partly drawn) [TR-129, N-(2-(2-(2-(2-((2-(2,6-dioxopiperidin-3-yl)-1,3-dioxoisoindolin-5-yl)amino)ethoxy)ethoxy)ethoxy)ethyl)-2-(4-(6-(6-((R)-2-(3-fluorophenyl)pyrrolidin-1-yl)imidazo[1,2-b]pyridazin-3-yl)pyridin-2-yl)piperazin-1-yl)acetamide], 4.4 nM.
The figure for `O=C(CN1CCN(c2cccc(-c3cnc4ccc(N5CCC[C@@H]5c5cccc(F)c5)nn34)n2)CC1)NCCNc1ccc2c(c1)C(=O)N(C1CCC(=O)NC1=O)C2=O` (stereo partly drawn) [TR-130, N-(2-((2-(2,6-dioxopiperidin-3-yl)-1,3-dioxoisoindolin-5-yl)amino)ethyl)-2-(4-(6-(6-((R)-2-(3-fluorophenyl)pyrrolidin-1-yl)imidazo[1,2-b]pyridazin-3-yl)pyridin-2-yl)piperazin-1-yl)acetamide] is 0.9 nM; for `O=C(CN1CCN(c2cccc(-c3cnc4ccc(N5CCC[C@@H]5c5cccc(F)c5)nn34)n2)CC1)NCCCCCNc1ccc2c(c1)C(=O)N(C1CCC(=O)NC1=O)C2=O` (stereo partly drawn) [TR-131, N-(5-((2-(2,6-dioxopiperidin-3-yl)-1,3-dioxoisoindolin-5-yl)amino)pentyl)-2-(4-(6-(6-((R)-2-(3-fluorophenyl)pyrrolidin-1-yl)imidazo[1,2-b]pyridazin-3-yl)pyridin-2-yl)piperazin-1-yl)acetamide] it is 2.7 nM.
For the compound `O=C(CN1CCN(c2cccc(-c3cnc4ccc(N5CCC[C@@H]5c5cccc(F)c5)nn34)n2)CC1)NCCOCCOCCOCCOCCOCCNc1ccc2c(c1)C(=O)N(C1CCC(=O)NC1=O)C2=O` (stereo partly drawn) [TR-132, N-(17-((2-(2,6-dioxopiperidin-3-yl)-1,3-dioxoisoindolin-5-yl)amino)-3,6,9,12,15-pentaoxaheptadecyl)-2-(4-(6-(6-((R)-2-(3-fluorophenyl)pyrrolidin-1-yl)imidazo[1,2-b]pyridazin-3-yl)pyridin-2-yl)piperazin-1-yl)acetamide], the half-maximal inhibitory concentration (IC50) came out at 4.4 nM.
With `O=C(CN1CCN(c2cccc(-c3cnc4ccc(N5CCC[C@@H]5c5cccc(F)c5)nn34)n2)CC1)NCCCCCCCCNc1ccc2c(c1)C(=O)N(C1CCC(=O)NC1=O)C2=O` (stereo partly drawn) [TR-133, N-(8-((2-(2,6-dioxopiperidin-3-yl)-1,3-dioxoisoindolin-5-yl)amino)octyl)-2-(4-(6-(6-((R)-2-(3-fluorophenyl)pyrrolidin-1-yl)imidazo[1,2-b]pyridazin-3-yl)pyridin-2-yl)piperazin-1-yl)acetamide], the half-maximal inhibitory concentration (IC50) was determined as 22.8 nM.
As for `O=C(CN1CCN(c2cccc(-c3cnc4ccc(N5CCC[C@@H]5c5cccc(F)c5)nn34)n2)CC1)NCCOCCOCCNc1ccc2c(c1)C(=O)N(C1CCC(=O)NC1=O)C2=O` (stereo partly drawn) [TR-134, N-(2-(2-(2-((2-(2,6-dioxopiperidin-3-yl)-1,3-dioxoisoindolin-5-yl)amino)ethoxy)ethoxy)ethyl)-2-(4-(6-(6-((R)-2-(3-fluorophenyl)pyrrolidin-1-yl)imidazo[1,2-b]pyridazin-3-yl)pyridin-2-yl)piperazin-1-yl)acetamide], the IC50 was determined as 5.6 nM.
The figure for `O=C(CN1CCN(c2cccc(-c3cnc4ccc(N5CCC[C@@H]5c5cccc(F)c5)nn34)n2)CC1)NCCOCCNc1ccc2c(c1)C(=O)N(C1CCC(=O)NC1=O)C2=O` (stereo partly drawn) [TR-135, N-(2-(2-((2-(2,6-dioxopiperidin-3-yl)-1,3-dioxoisoindolin-5-yl)amino)ethoxy)ethyl)-2-(4-(6-(6-((R)-2-(3-fluorophenyl)pyrrolidin-1-yl)imidazo[1,2-b]pyridazin-3-yl)pyridin-2-yl)piperazin-1-yl)acetamide] is 0.9 nM; for `O=C1CCC(N2C(=O)c3ccc(NCCCCCCCC(=O)N4CCN(c5ccc(C(=O)Nc6n[nH]c7ccc(Cc8cc(F)cc(F)c8)cc67)c(NC6CCOCC6)c5)CC4)cc3C2=O)C(=O)N1` (centres unmarked) [TR-136, N-(5-(3,5-Difluorobenzyl)-1H-indazol-3-yl)-4-(4-(8-((2-(2,6-dioxopiperidin-3-yl)-1,3-dioxoisoindolin-5-yl)amino)octanoyl)piperazin-1-yl)-2-((tetrahydro-2H-pyran-4-yl)amino)benzamide] it is 23.6 nM; for `O=C1CCC(N2C(=O)c3ccc(NCCOCCOCCOCCOCCOCCC(=O)N4CCN(c5ccc(C(=O)Nc6n[nH]c7ccc(Cc8cc(F)cc(F)c8)cc67)c(NC6CCOCC6)c5)CC4)cc3C2=O)C(=O)N1` (centres unmarked) [TR-137, N-(5-(3,5-Difluorobenzyl)-1H-indazol-3-yl)-4-(4-(1-((2-(2,6-dioxopiperidin-3-yl)-1,3-dioxoisoindolin-5-yl)amino)-3,6,9,12,15-pentaoxaoctadecan-18-oyl)piperazin-1-yl)-2-((tetrahydro-2H-pyran-4-yl)amino)benzamide] it is 2.5 nM.
As for `O=C1CCC(N2C(=O)c3ccc(NCCCCCC(=O)N4CCN(c5ccc(C(=O)Nc6n[nH]c7ccc(Cc8cc(F)cc(F)c8)cc67)c(NC6CCOCC6)c5)CC4)cc3C2=O)C(=O)N1` (centres unmarked) [TR-138, N-(5-(3,5-Difluorobenzyl)-1H-indazol-3-yl)-4-(4-(6-((2-(2,6-dioxopiperidin-3-yl)-1,3-dioxoisoindolin-5-yl)amino)hexanoyl)piperazin-1-yl)-2-((tetrahydro-2H-pyran-4-yl)amino)benzamide], the figure is 31.1 nM; as for `O=C1CCC(N2C(=O)c3ccc(NCCCCCCC(=O)N4CCN(c5ccc(C(=O)Nc6n[nH]c7ccc(Cc8cc(F)cc(F)c8)cc67)c(NC6CCOCC6)c5)CC4)cc3C2=O)C(=O)N1` (centres unmarked) [TR-139, N-(5-(3,5-Difluorobenzyl)-1H-indazol-3-yl)-4-(4-(7-((2-(2,6-dioxopiperidin-3-yl)-1,3-dioxoisoindolin-5-yl)amino)heptanoyl)piperazin-1-yl)-2-((tetrahydro-2H-pyran-4-yl)amino)benzamide], 27.1 nM; as for `O=C1CCC(N2C(=O)c3ccc(NCCOCCOCCOCCOCCC(=O)N4CCN(c5ccc(C(=O)Nc6n[nH]c7ccc(Cc8cc(F)cc(F)c8)cc67)c(NC6CCOCC6)c5)CC4)cc3C2=O)C(=O)N1` (centres unmarked) [TR-140, N-(5-(3,5-Difluorobenzyl)-1H-indazol-3-yl)-4-(4-(1-((2-(2,6-dioxopiperidin-3-yl)-1,3-dioxoisoindolin-5-yl)amino)-3,6,9,12-tetraoxapentadecan-15-oyl)piperazin-1-yl)-2-((tetrahydro-2H-pyran-4-yl)amino)benzamide], 1.6 nM.
The figure for `O=C1CCC(N2C(=O)c3ccc(NCCOCCOCCC(=O)N4CCN(c5ccc(C(=O)Nc6n[nH]c7ccc(Cc8cc(F)cc(F)c8)cc67)c(NC6CCOCC6)c5)CC4)cc3C2=O)C(=O)N1` (centres unmarked) [TR-141, N-(5-(3,5-Difluorobenzyl)-1H-indazol-3-yl)-4-(4-(3-(2-(2-((2-(2,6-dioxopiperidin-3-yl)-1,3-dioxoisoindolin-5-yl)amino)ethoxy)ethoxy)propanoyl)piperazin-1-yl)-2-((tetrahydro-2H-pyran-4-yl)amino)benzamide] is 2.6 nM.
Regarding `O=C1CCC(N2C(=O)c3ccc(NCCCCC(=O)N4CCN(c5ccc(C(=O)Nc6n[nH]c7ccc(Cc8cc(F)cc(F)c8)cc67)c(NC6CCOCC6)c5)CC4)cc3C2=O)C(=O)N1` (centres unmarked) [TR-142, N-(5-(3,5-Difluorobenzyl)-1H-indazol-3-yl)-4-(4-(5-((2-(2,6-dioxopiperidin-3-yl)-1,3-dioxoisoindolin-5-yl)amino)pentanoyl)piperazin-1-yl)-2-((tetrahydro-2H-pyran-4-yl)amino)benzamide], the 50% inhibitory concentration (IC50) came out at 3.4 nM.
The figure for `O=C1CCC(N2C(=O)c3ccc(NCCOCCC(=O)N4CCN(c5ccc(C(=O)Nc6n[nH]c7ccc(Cc8cc(F)cc(F)c8)cc67)c(NC6CCOCC6)c5)CC4)cc3C2=O)C(=O)N1` (centres unmarked) [TR-143] is 5.6 nM; for `O=C1CCC(N2C(=O)c3ccc(NCC(=O)N4CCN(c5ccc(C(=O)Nc6n[nH]c7ccc(Cc8cc(F)cc(F)c8)cc67)c(NC6CCOCC6)c5)CC4)cc3C2=O)C(=O)N1` (centres unmarked) [TR-144, N-(5-(3,5-Difluorobenzyl)-1H-indazol-3-yl)-4-(4-((2-(2,6-dioxopiperidin-3-yl)-1,3-dioxoisoindolin-5-yl)glycyl)piperazin-1-yl)-2-((tetrahydro-2H-pyran-4-yl)amino)benzamide] it is 2.2 nM.
